Source: patent US7179832B2, “Glycogen synthase kinase 3β inhibitor, composition and process for the preparation thereof” (Crystalgenomics, Inc., priority 2003, dated 2007)

target: GSK-3β (Homo sapiens, UniProt P49841); assay: Assay for GSK-3β inhibiting activity (32P-ATP, phospho-CREB peptide substrate, filter paper, CPM); assay type: biochemical; settings: GSK-3β inhibiting activity; 100 nM GSK-3β protein, 100 μM phospho-CREB peptide, 100 μM ATP, 30° C. for 1 hour; read-out: IC50
Method: Assay for GSK-3β inhibiting activity
First, PCR (polymerase chain reaction) was carried out using human DNA as a template as well as primers which were designed to correspond to the 3′- and 5′ ends of the polynucleotide coding human GSK-3β gene (Genbank Accession No.: L33801). The BamH1/XhoI fragment of the amplified PCR product thus obtained was inserted into the pGex vector between the BamH1 and XhoI sites, and the vector obtained was transformed into E. coli BL21(DE3). The transformed cells thus obtained was incubated in […] (1% Bacto-trypton, 0.5% yeast extract, 1% NaCl) containing ampicillin ([…]) until the optical density at 600 nm reached about 0.5. The cultured mixture was cooled to 18° C. and isopropyl β-D-thiogalacto-pyranoside (IPTG) was added thereto to a final concentration of 0.5 mM. After 16 hours, the resultant was centrifuged at 10,000×g for 10 min, the collected cells were suspended in a buffer solution (30 mM Tris-HCl (pH 7.5), 100 mM NaCl, 5% glycerol, 2 mM DTT) and the cells were disrupted using Sonic Dismembrator (Fisher, U.S.A.) in a ice bath. The resulting solution was centrifuged at 16,000 rpm for 30 minutes. […] The purified GSK-3β protein was diluted in a buffer solution (20 mM HEPES (pH 7.5), 5% glycerol, 2 mM DTT) to a final concentration of 50 mM NaCl and the resulting solution was subjected to mono S column chromatography (eluent: linear gradient from 0M to 1M NaCl buffer) using mono S column (Pharmacia Biotech, U.S.A.) equilibrated in the same buffer solution to obtain GSK-3β protein.
The reaction was stopped by adding 5 μl of 5% phosphoric acid to 25 μl of the resulting solution. The resulting mixture was centrifuged at 15,000 rpm for 10 min, 20 μl of the supernatant was added dropwise to Whatman p81 filter paper, and then, the resulting filter paper was washed with 0.5% phosphate buffer for 10 min. The filter paper was further washed 3 times and the enzymatic activity was determined by examining the extent of phospho-CREB peptide phosphorylation which is represented by the unit of count per minute (CPM), measured with a β-counter (Packard, USA).
The GSK-3β inhibiting activity was then calculated in accordance with the following equation:
[formula] wherein the blank represents a value obtained without the use of the enzyme and the compound of the present invention, and the control, in the absence of the compound of the present invention.

Chain of GSK-3β (P49841 whole entry): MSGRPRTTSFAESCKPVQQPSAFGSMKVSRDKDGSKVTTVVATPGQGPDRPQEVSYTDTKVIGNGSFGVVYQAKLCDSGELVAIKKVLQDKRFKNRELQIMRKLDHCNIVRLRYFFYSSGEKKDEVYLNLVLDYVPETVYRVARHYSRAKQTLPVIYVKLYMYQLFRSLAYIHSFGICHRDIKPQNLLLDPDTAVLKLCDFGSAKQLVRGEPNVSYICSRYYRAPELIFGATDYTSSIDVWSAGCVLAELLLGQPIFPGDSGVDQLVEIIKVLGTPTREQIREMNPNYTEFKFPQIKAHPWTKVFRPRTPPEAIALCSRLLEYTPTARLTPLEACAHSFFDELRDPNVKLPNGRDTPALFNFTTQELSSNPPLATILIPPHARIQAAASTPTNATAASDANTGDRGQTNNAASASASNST

Row | IC50 | Compound
1 | 0.006 µM | Cc1ccc(S(=O)(=O)Nc2ccc(CCNC(=O)c3ccc(O)c4[nH]c(-c5ccc(F)cc5Cl)nc34)cc2)cc1 [Compound 144]
2 | 0.2 µM | O=C(NCCCN1CCCC1=O)c1ccc(O)c2[nH]c(-c3ccc(Cl)cc3Cl)nc12 [Compound 177]
3 | 0.002 µM | Cc1nccn1CCCNC(=O)c1ccc(O)c2[nH]c(-c3ccc(F)cc3)nc12 [Compound 188]
4 | 0.21 µM | O=C(NCCN1CCOCC1)c1ccc(O)c2[nH]c(-c3ccc(F)cc3Cl)nc12 [Compound 147]
5 | 0.02 µM | Cc1cn(CCCNC(=O)c2ccc(O)c3[nH]c(-c4ccc(F)cc4F)nc23)cn1 [Compound 193]
6 | > 5 µM | O=C(NCCCn1cnc(Cl)c1Cl)c1ccc(O)c2[nH]c(-c3ccc(NCCN4CCOCC4)cc3)nc12 [Compound 204, 7-hydroxy-2-[4-(2-morpholin-4-yl-ethylamino)-phenyl]-1H-benzoimidazole-4-carboxylic acid [3-(4,5-dichloro-imidazol-1-yl)-propyl]-amide]
7 | 0.12 µM | O=C(NCCc1cccc(Br)c1)c1ccc(O)c2[nH]c(-c3ccc(F)cc3)nc12 [Compound 139]
8 | 0.04 µM | O=C(NCCCn1ccnc1)c1ccc(O)c2[nH]c(-c3ccc(Cl)cc3Cl)nc12 [Compound 178]
9 | 0.006 µM | O=C(NCCCn1cnc(Cl)c1Cl)c1ccc(O)c2[nH]c(-c3ccc(F)cc3)nc12 [Compound 190]
10 | > 1 µM | CN1CCN(CCNC(=O)c2ccc(O)c3[nH]c(-c4ccc(F)cc4Cl)nc23)CC1 [Compound 148]
11 | 0.05 µM | Cc1ccc(S(=O)(=O)Nc2ccc(NCCNC(=O)c3ccc(O)c4[nH]c(-c5ccc(F)cc5Cl)nc34)nc2)cc1 [Compound 153]
12 | 0.68 µM | CCN(CC)CC(=O)Nc1ccc(CCNC(=O)c2ccc(O)c3[nH]c(-c4ccc(F)cc4Cl)nc23)cc1 [Compound 159]
13 | 0.004 µM | O=C(NCCCn1cnc(Cl)c1Cl)c1ccc(O)c2[nH]c(-c3ccc(F)cc3F)nc12 [Compound 194]
14 | > 1 µM | COc1ccccc1CCNC(=O)c1ccc(O)c2[nH]c(-c3ccc(F)cc3)nc12 [Compound 138]
15 | 0.07 µM | Cc1ccc(S(=O)(=O)Nc2ccc(NCCNC(=O)c3ccc(O)c4[nH]c(-c5ccc(F)cc5)nc34)nc2)cc1 [Compound 124]
16 | 0.05 µM | CC(C)c1nccn1CCCNC(=O)c1ccc(O)c2[nH]c(-c3ccc(F)cc3)nc12 [Compound 186]
17 | > 1 µM | Cc1ccc(S(=O)(=O)Nc2ccc(CCNC(=O)c3ccc(O)c4[nH]c(-c5ccc(F)c(Cl)c5)nc34)cc2)cc1 [Compound 160]
18 | 0.03 µM | O=C(NCCc1ccc(O)cc1)c1ccc(O)c2[nH]c(-c3ccc(F)cc3)nc12 [Compound 121]
19 | 0.23 µM | CN(C)CC(=O)Nc1ccc(CCNC(=O)c2ccc(O)c3[nH]c(-c4ccc(F)cc4Cl)nc23)cc1 [Compound 158]
20 | > 1 µM | CCCCNC(=O)c1ccc(O)c2[nH]c(-c3ccc(Cl)cc3)nc12 [Compound 168]
21 | 0.01 µM | Cc1cn(CCCNC(=O)c2ccc(O)c3[nH]c(-c4ccc(F)cc4)nc23)cn1 [Compound 187]
22 | 0.18 µM | CN1CCN(CC(=O)Nc2ccc(CCNC(=O)c3ccc(O)c4[nH]c(-c5ccc(F)cc5)nc34)cc2)CC1 [Compound 127]
23 | 0.06 µM | O=C(NCCc1ccc(O)cc1)c1ccc(O)c2[nH]c(-c3ccc(F)cc3Cl)nc12 [Compound 150]
24 | 0.008 µM | O=C(NCCCn1cnc(Cl)c1Cl)c1ccc(O)c2nc(-c3ccc(Cl)cc3Cl)[nH]c12 [Compound 182]
25 | 0.24 µM | CS(=O)(=O)Nc1ccc(NCCNC(=O)c2ccc(O)c3[nH]c(-c4ccc(F)cc4Cl)nc23)nc1 [Compound 152]

The remaining lines, values behind:

Row | Compound | IC50
26 | Cc1ccc(S(=O)(=O)NCCc2ccc(NC(=O)c3ccc(O)c4[nH]c(-c5ccccc5)nc34)cc2)cc1 [Compound 9] | 0.18 µM
27 | O=C(NCCc1ccc(N2C(=O)c3ccccc3C2=O)cc1)c1ccc(O)c2[nH]c(-c3ccc(Cl)cc3)nc12 [Compound 79] | 0.12 µM
28 | O=C(c1ccc(O)c2[nH]c(-c3ccc(Cl)cc3Cl)nc12)N1CCCCC1 [Compound 48] | > 5 µM
29 | COc1ccc(CCNC(=O)c2ccc(O)c3[nH]c(-c4ccccc4)nc23)cc1O [Compound 63] | 0.45 µM
30 | O=C(NCCc1ccc(O)cc1)c1ccc(O)c2[nH]c(-c3ccccc3)nc12 [Compound 58] | 0.67 µM
31 | Cc1ccc(S(=O)(=O)NCCc2ccc(NC(=O)c3ccc(O)c4[nH]c(-c5ccc(F)cc5)nc34)cc2)cc1 [Compound 34] | > 1 µM
32 | COc1cc(CCNC(=O)c2ccc(O)c3[nH]c(-c4ccc(Cl)cc4Cl)nc23)ccc1O [Compound 101] | > 1 µM
33 | O=C(Nc1ccc(N2CCOCC2)cc1)c1ccc(O)c2[nH]c(-c3ccc(F)cc3)nc12 [Compound 36] | > 1 µM
34 | O=C(NC1CCC(O)CC1)c1ccc(O)c2[nH]c(-c3ccccc3)nc12 (centres unmarked) [Compound 5] | 0.3 µM
35 | O=C(Nc1ccc(CCNS(=O)(=O)c2cccs2)cc1)c1ccc(O)c2[nH]c(-c3ccc(Cl)cc3)nc12 [Compound 19] | > 1 µM
36 | O=C(NCc1ccc([N+](=O)[O-])cc1)c1ccc(O)c2[nH]c(-c3ccc(Cl)cc3)nc12 [Compound 53] | > 1 µM
37 | O=C(NCCN1CCOCC1)c1ccc(O)c2[nH]c(-c3ccc(Cl)cc3Cl)nc12 [Compound 108] | > 1 µM
38 | O=C(NCCc1ccccn1)c1ccc(O)c2[nH]c(-c3ccccc3)nc12 [Compound 70] | > 1 µM
39 | CCS(=O)(=O)NCCc1ccc(NC(=O)c2ccc(O)c3[nH]c(-c4ccc(Cl)cc4Cl)nc23)cc1 [Compound 32] | 0.5 µM
40 | Nc1ccc(CCNC(=O)c2ccc(O)c3nc(-c4ccccc4)[nH]c23)cc1 [Compound 60] | 0.35 µM
41 | CS(=O)(=O)NCCc1ccc(NC(=O)c2ccc(O)c3[nH]c(-c4ccc(F)c(Cl)c4)nc23)cc1 [Compound 45] | 0.02 µM
42 | CCS(=O)(=O)NCCc1ccc(NC(=O)c2ccc(O)c3[nH]c(-c4ccccc4)nc23)cc1 [Compound 13] | 0.36 µM
43 | CN(C)CC(=O)Nc1ccc(CCNC(=O)c2ccc(O)c3[nH]c(-c4ccc(Cl)cc4)nc23)cc1 [Compound 88] | 0.22 µM

Row | Compound | IC50
44 | CCN(CC)CC(=O)Nc1ccc(CCNC(=O)c2ccc(O)c3[nH]c(-c4ccc(Cl)cc4)nc23)cc1 [Compound 89] | 0.32 µM
45 | O=C(Nc1ccc(CCO)cc1)c1ccc(O)c2[nH]c(-c3ccc(Cl)cc3Cl)nc12 [Compound 27] | > 1 µM
46 | O=C(Nc1ccc(CCN2C(=O)c3ccccc3C2=O)cc1)c1ccc(O)c2[nH]c(-c3ccccc3)nc12 [Compound 11] | > 5 µM
47 | NCCc1ccc(NC(=O)c2ccc(O)c3[nH]c(-c4ccc(Cl)cc4Cl)nc23)cc1 [Compound 24] | > 5 µM
48 | CS(=O)(=O)Nc1ccc(CCNC(=O)c2ccc(O)c3[nH]c(-c4ccc(F)cc4)nc23)cc1 [Compound 114] | 0.001 µM
49 | CC(=O)Nc1ccc(CCNC(=O)c2ccc(O)c3[nH]c(-c4ccc(Cl)cc4Cl)nc23)cc1 [Compound 112] | 0.04 µM
50 | CCN1CCN(CC(=O)Nc2ccc(CCNC(=O)c3ccc(O)c4[nH]c(-c5ccc(Cl)cc5)nc34)cc2)CC1 [Compound 87] | 0.23 µM
51 | O=C(NCCc1ccccc1O)c1ccc(O)c2[nH]c(-c3ccc(Cl)cc3)nc12 [Compound 96] | 0.022 µM
52 | COc1ccccc1CCNC(=O)c1ccc(O)c2[nH]c(-c3ccc(Cl)cc3)nc12 [Compound 97] | 0.17 µM
53 | CS(=O)(=O)NCCc1ccc(NC(=O)c2ccc(O)c3[nH]c(-c4ccc(Cl)cc4)nc23)cc1 [Compound 17] | 0.24 µM
54 | COc1ccc(CCNC(=O)c2ccc(O)c3[nH]c(-c4ccc(Cl)cc4)nc23)cc1O [Compound 77] | 0.033 µM
55 | CN(C)c1ccc(CCNC(=O)c2ccc(O)c3[nH]c(-c4ccc(Cl)cc4)nc23)cc1 [Compound 93] | > 1 µM
56 | O=C(Nc1ccccc1)c1ccc(O)c2[nH]c(-c3ccc(Cl)cc3Cl)nc12 [Compound 22] | > 1 µM
57 | CCS(=O)(=O)Nc1ccc(CCNC(=O)c2ccc(O)c3[nH]c(-c4ccc(Cl)cc4)nc23)cc1 [Compound 80] | 0.07 µM
58 | CS(=O)(=O)NCCc1ccc(NC(=O)c2ccc(O)c3[nH]c(-c4ccc(F)cc4F)nc23)cc1 [Compound 37] | > 1 µM
59 | CS(=O)(=O)NCCc1ccc(NC(=O)c2ccc(O)c3[nH]c(-c4ccc(F)cc4Cl)nc23)cc1 [Compound 41] | > 1 µM
60 | O=C(NCCc1ccccn1)c1ccc(O)c2[nH]c(-c3ccc(Cl)cc3Cl)nc12 [Compound 111] | > 1 µM
61 | NCCNC(=O)c1ccc(O)c2[nH]c(-c3ccccc3)nc12 [Compound 61] | > 1 µM

same assay, conditions: IC50 (μM)

Row | IC50 | Compound
62 | 0.002 µM | CCS(=O)(=O)Nc1ccc(CCNC(=O)c2ccc(O)c3nc(-c4ccc(F)cc4Cl)[nH]c23)cc1 [Compound 145]
